In assay [1] the target is T1, SNAP-tag-ST26 enzyme (SNAP-tag-mGluR2 fusion protein) (Homo sapiens, UniProt P16455, A127T/C150S/C62A/G131K/G132T/K125A/M134L/N157G/R128A/R135S/S159E).
T1 construct: expressed in transfected cells; host or cells: COS 7 cells, transient electroporation
T1 sequence (P16455 1-182 C62A/K125A/A127T/R128A/G131K/G132T/M134L/R135S/C150S/N157G/S159E limits assumed): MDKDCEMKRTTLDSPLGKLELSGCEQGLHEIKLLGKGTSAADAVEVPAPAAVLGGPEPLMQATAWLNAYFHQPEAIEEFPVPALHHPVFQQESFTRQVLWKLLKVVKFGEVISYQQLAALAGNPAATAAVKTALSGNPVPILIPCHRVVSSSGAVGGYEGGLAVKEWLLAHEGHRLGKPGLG
In words: Enzymatic reactivity test in a cell model, SNAP-tag-mGluR2 expressed by COS 7 cells. The class given is cell-based. To be noted: living COS 7 cells, labeling 1 h at 37° C., read-out: half saturation concentration of the enzyme. As to the method: This procedure makes it possible to test the reactivity of substrates according to the invention with an AGT expressed by COS 7 cells in the form of a fusion protein with the type 2 glutamate transmembrane receptor (mGluR2).
Various mutants of AGT were analyzed in this study: SNAP-tag-ST26 or CLIP-tag from Covalys or the N-AGT mutant described by Gronemeyer et al. (Protein Engineering, Design & Selection, Vol. 19, No. 7, pp. 309-316, 2006).
• SNAP-tag-mGluR2 plasmid, prepared from the pSET-26b plasmid according to the protocol of the commercial kit (SNAP express pSTE7-26b kit, Covalys Biosciences) • Invitrogen pcdna3.1 plasmid. This plasmid is used as a negative control; the cells transfected with this plasmid are denoted “mock” and make it possible to determine the level of non-specific labeling. Protocol:
The transient transfection of the cells is carried out by electroporation using a Biorad electroporator: 10 million cells are transfected by 1 μg SNAP-tag-mGluR2+3 μg pcdna3.1 in a final volume of 300 μl. The electroporation parameters are: 280 V & 1000 μF.
The cells are then seeded at 150 000 cells per well in Greiner plates (opaque black bottom) previously incubated with polyornithine for 30 minutes at 37° C.
The cells are cultured in the DMEM+Phenol Red+10% FCS+penicillin/streptomycin+non-essential amino acids medium at 37° C. and 5% CO2. After 24 h of expression, a first washing operation is carried out with 100 μl of this same medium.
The labeling of the AGT-mGluR2 fusion protein takes place in 100 μl of complete medium with increasing concentrations of BG-fluorophore or BG-L1-A-L2-fluorophore according to the invention for 1 h at 37° C. Before the reading, 4 washing operations are carried out with 100 μl of Tris-Krebs.
For the substrates bearing fluorophores ATTO647 (example 2), DY647 (examples 1 and 5) and fluorescein-5-EX (example 3), the reading is carried out in 100 μl of Tris-Krebs in direct fluorescence at 682 nm on a Rubystar machine, and at 520 nm for those bearing fluorescein-5-EX (example 3).
For the substrates bearing the terbium KR complex (examples 4 and 6), the reading is taken in 100 μl of Tris-Krebs in time-resolved fluorescence at 620 nm on a Rubystar machine.

Assay [2] addresses T2, SNAP-tag enzyme (GST-SNAP-tag-FKBP fusion protein) (Homo sapiens, UniProt P16455, A127T/C150S/C62A/G131K/G132T/K125A/M134L/N157G/R128A/R135S/S159E).
T2 construct: GST (N)
T2 sequence (P16455 1-182 C62A/K125A/A127T/R128A/G131K/G132T/M134L/R135S/C150S/N157G/S159E limits assumed): T1 sequence (P16455 1-182 C62A/K125A/A127T/R128A/G131K/G132T/M134L/R135S/C150S/N157G/S159E limits assumed)
In words: Enzymatic reactivity test in an in vitro model (TR-FRET labeling of GST-SNAPtag-FKBP recombinant protein). The format is biochemical. To be noted: for reactivity of the substrate with the SNAP-tag enzyme: in vitro protein labeling, compared with reference substrate. An excerpt:
The test of reactivity of the substrates according to the invention with the SNAP-tag enzyme is based on an in vitro test of labeling a recombinant protein.
In this case, use is made of the FRB and FKBP proteins that interact in the presence of rapamycin.
The FKBP protein is labeled by a first fluorophore via SNAP-tag technology: for this, a GST-SNAPtag-FKBP fusion protein is produced from the pSET7-26b plasmid according to the protocol of the commercial kit (SNAP express pSET7-26b kit, Covalys Biosciences AG, Witterswil/Switzerland). This fusion protein is then brought into contact with the first fluorophore conjugated to a reference BG derivative or to a BG derivative according to the invention.
The FRB protein is itself coupled via conventional conjugation techniques with a donor fluorescent compound (europium TBP cryptate (KTBP), Cisbio Bioassay) or acceptor fluorescent compound (DY647, Dyomics) depending on the case, following the protocols provided with these products.
The table below explains the nature of the pairs of fluorophores in each of the following examples 1 to 4:
In each example, 2 nmol of FRB recombinant protein labeled with a europium cryptate or DY647 (2nd fluorophore) are co-incubated at ambient temperature with 2 nmol of GST-SNAP-tag-FKBP recombinant protein and increasing concentrations of BG labeled by the first fluorophore (BG-fluorophore of the prior art or BG-L1-A-L2-fluorophore according to the invention).
The fluorescence readings are taken at 620 nm and at 665 nm on a RubyStar machine (BMG laboratory) after an excitation at 337 nm. The readings are carried out before and after induction of the FRB/FKBP protein interaction by 100 nM of rapamycin. This interaction is expressed by the emission of a TR-FRET signal. Since the SNAP-tag enzyme can only attach to a single fluorescent group, the increase in the TR-FRET signal is directly proportional to the percentage of labeled proteins in the reaction medium. This in vitro model makes it possible to establish enzymatic labeling kinetics as a function of the excess of substrate involved in the reaction.
The results are indicated either as d665 or as % labeling according to the following formulae: d 665=(signal at 665 nm with the GST-ST-FKBP protein)−(signal at 665 nm without the GST-ST-FKBP protein).
The percentage of labeling is obtained by comparison with the signal corresponding to the maximum labeling that is obtained after 18 hours of incubation. % labeling=(d665 at t measured/d665 18 h of incubation)×100. Procedure of the Enzymatic Reactivity Test in a Cell Model
In general terms: Time-resolved FRET reads energy transfer from a long-lived donor to a nearby acceptor.

Assay [3] concerns the target T3, CLIP-tag enzyme (CLIPtag-mGluR2 fusion protein) (Homo sapiens, UniProt P16455, K32I/L33F/M60I/C62A/Y114E/Q115S/Q116H/A121V/K125A/A127T/R128A/G131N/G132T/M134L/R135D/C150Q/S151G/S152D/G153S/A154D/N157P/S159L).
T3 construct: The co-expressed SNAPtag-mGluR2 is a separate chain that carries the FRET partner dye
T3 sequence (P16455 1-207 K32I/L33F/M60I/C62A/Y114E/Q115S/Q116H/A121V/K125A/A127T/R128A/G131N/G132T/M134L/R135D/C150Q/S151G/S152D/G153S/A154D/N157P/S159L): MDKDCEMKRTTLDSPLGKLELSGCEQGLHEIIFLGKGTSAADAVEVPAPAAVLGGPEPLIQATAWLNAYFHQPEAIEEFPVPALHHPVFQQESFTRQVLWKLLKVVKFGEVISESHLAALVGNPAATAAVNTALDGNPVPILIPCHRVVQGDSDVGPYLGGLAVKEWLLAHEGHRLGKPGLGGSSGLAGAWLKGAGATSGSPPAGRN
In words: Cell model with CLIPtag-mGluR2 and SNAPtag-mGluR2 cotransfection, TR-FRET at 665 nm. The class given is cell-based. The note with it: cells incubated with 300 nM of BG-methylbenzamide-DY647; TR-FRET 665 nm; read-out: half saturation concentration of CLIPtag. How it is done:
The cell model used in this example is different from that used in the preceding examples:
The cells are either cotransfected with a plasmid coding for the fusion protein CLIPtag-mGluR2 and another plasmid coding for the fusion protein SNAPtag-mGluR2, or transfected with a single plasmid coding for the fusion protein SNAPtag-mGluR2.
Each cell population is incubated in the presence of 300 nM of BG-methylbenzamide-DY647 and increasing concentrations of reference substrates (BC-Tb(KR)) or of a substrate according to the invention (BC-methylbenzamide-Tb(KR)). The fluorescence is measured at 665 nm in TR-FRET mode on a Rubystar machine and the signal measured is representative of a transfer of energy following the dimerization of two monomers of mGluR2 labeled respectively by DY647 and Tb(KR).
This example is carried out in the same way as example 7 but the cells are incubated in the presence of 300 nM of BG-methylbenzamide-Tb(KR) and increasing concentrations of reference substrate (BC-DY647) or of substrate according to the invention (BC-methylbenzamide-DY647), the formulae of which are below: […]

In the case of “Atto465-BG [BG-Atto465, reference compound]”, the EC50 in assay [1] worked out at 1980 nM. Consider “DY647-aminomethylnicotinamide-benzylguanine [BG-aminomethylnicotinamide-DY647]”, for which the “percentage of labeling of the SNAP-tag enzyme compared with the reference substrate” value in assay [2] (in vitro, after 30 min of incubation, regardless of the concentration of substrate) is on record as “much better”. As to “DY647-cis-cyclohexane-benzylguanine [BG-cis-cyclohexane-DY647]”, the “percentage of enzyme labeled compared with the reference substrate” value in assay [2] (in vitro, after 1 h of incubation, regardless of the substrate concentration) is “much better”. On to “Tb(KR)-aminomethylnicotinamide-benzylguanine [BG-aminomethylnicotinamide-Tb(KR)]”, for which the “reactivity of the substrate with the SNAP-tag enzyme” value in assay [2] is listed as “Results similar to those obtained with the compounds of the preceding examples”. On to “Tb(KR)-methylbenzamide-BC [BC-methylbenzamide-Tb(KR)]”, for which the EC50 in assay [3] stood at 131 nM.

Consider “Tb(KR)-methylbenzamide-BG [BG-methylbenzamide-Tb(KR)]”, for which, in assay [2], the “reactivity of the substrate with the SNAP-tag enzyme” value was “much better reactivity”. Besides, the EC50 in assay [1] worked out at 15.4 nM. Turning to “benzylcytosine-Tb(KR) [BC-Tb(KR), reference compound]”, the EC50 in assay [3] is 820 nM.

Turning to “benzylguanine-Tb(KR) [BG-Tb(KR), reference compound]”, the EC50 in assay [1] came out at 60 nM.
